Test results from patent publication US20220039395A1, “INSECT CONTROL AGENTS” (priority 2018, published 2022).
Entries after “also recorded” stand apart in the source; their conditions may differ. Numbered stars: 1 amine (or outer) side, 2 acyl side, 3 side chain; on linkers, the order of the positions; unused ones are H or OH. Peptide text beside a SMILES is read from it. * marks the point of attachment. X1 = Brc1ccc2c(c1)-c1cc(N*)ccc1C2; Suc = O=C(CCC(=O)[*:2])[*:1]

Key:
Macrosiphum rosae = assay: Desiccation/starvation tolerance assay after peptide microinjection; format: in vivo; conditions: for Reduction of LTime50 relative to control / Reduction of median survival relative to control: M. rosae, desiccation/starvation stress; for Documented effect on desiccation/starvation mortality / LTime50 (h), test / Median IQR survival (h), test: Macrosiphum rosae, microinjection; for Documented effect on desiccation/starvation mortality: final concentration ×10^−5 M, relative to vehicle control; for LTime50 (h), test / Median IQR survival (h), test: ×10^−5 M, desiccation and starvation stress, test group
Protocol: (§1) Neuropeptides were administered to test aphids via microinjection to allow for rapid mass screening of neuropeptide analogue efficacy. For this, native neuropeptides were diluted in double distilled water (DDH2O) to a concentration of 1×10^−5 M. Neuropeptide analogues were diluted in DDH2O to the following concentrations: kinin analogues 1728 (2.5×10^−5 M), 2139 (3.5×10^−5 M), 2139-Ac (3.5×10^−5 M); CAP2b analogues 1895 (3.5×10^−5 M), 1896 (3.5×10^−5 M), 1902 (3.5×10^−5 M), 2089 (3.9×10^−5 M), 2123 (1.0×10^−5 M), 2125 (1.0×10^−5 M), 2129 (2.0×10^−5 M). Once at the desired concentration, neuropeptide solutions were administered to test aphids at an injection volume of 9 nl based on total haemolymph volume, to produce an approximate 1:20 dilution of injection volume to haemolymph. Injections were performed using a pulled glass needle and a Nanoject II Auto-Nanoliter Injector (Drummond Scientific Company, Broomall, Pa.). A vehicle control was set up for each treatment/day of experiments to account for variation in needle pulling. For this, control aphids were injected with 9 nl of DDH2O and subsequently exposed to the same experiments as aphids receiving the neuropeptide treatment. Neuropeptide treated and vehicle control aphids were subsequently used in the stress bioassays detailed below.
(§2) Anholocyclic adults of mixed age of either M. persicae or M. rosae were selected from the stock cultures and treated with a native neuropeptide or neuropeptide analogue via microinjection using the method detailed above. Treated and vehicle control aphids were allowed to recover on excised leaves of the host plant for 1 h before being placed in an empty ventilated microcage (L=4 cm, 0=9.5 cm) at densities of 10 per cage. In total, 30-40 aphids were treated for each neuropeptide treatment group and a further 30-40 for the associated vehicle control group. From the point of placement in the microcage (taken as 0 h), aphid survival was checked every hour during daylight hours and approximately every 4 h during night-time hours until the final aphid died. Survival data were subsequently analysed using a Log-rank (Mantel-Cox) text in GraphPad Prism version 7.0. LTime50 (the time taken to kill 50% of the test population) values were calculated via Probit Analysis in Minitab 17 (Minitab Inc., State College, Pa.).

Myzus persicae = assay: as above; format: in vivo; conditions: for Reduction of LTime50 relative to control / Reduction of median survival relative to control: M. persicae, desiccation/starvation stress; for Documented effect on desiccation/starvation mortality / LTime50 (h), test / Median ± IQR survival (h), test: Myzus persicae, microinjection; for Documented effect on desiccation/starvation mortality: final concentration ×10^−5 M, relative to vehicle control; for LTime50 (h), test / Median ± IQR survival (h), test: ×10^−5 M, desiccation and starvation stress, test group
Protocol: as §1, §2

Aphids = assay: Feeding with peptides in artificial diet, mortality without other stress; format: in vivo, Myzus persicae; conditions: ingestion via artificial diet
Protocol: A standard artificial diet for M. persicae was produced as described in Van Emden (2009) and provided the basal diet to which neuropeptide analogues were added for screening purposes. Neuropeptide analogues were diluted individually in the artificial diet to a pre-determined recommended concentration as follows: 1895 (3.5×10^−5 M) and 2019 (2.0×10^−5 M).
Feeding apparatus were constructed using a set-up developed by Sadeghi et al (2009). For this, a piece of Parafilm was stretched over a Plexiglas ring (h=4 cm, Ø=3 cm) and 100 μl of the artificial diet containing the desired neuropeptide analogue was pipette onto the Parafilm membrane. A second piece of Parafilm, stretched to 4 times the original thickness, was stretched over the original layer, sandwiching the artificial diet between two layers of Parafilm. A strip of Parafilm was wrapped around the circumference of the Plexiglas ring, sealing in the diet. A plastic ring (h=1.2 cm, Ø=3.4 cm) was subsequently placed over the Parafilm layer, creating a walled chamber in which to house test aphids in contact with the Parafilm layer containing the artificial diet. Finally, a small Petri dish (h=1 cm, Ø=3.6 cm), modified for ventilation with net cloth, was placed on top of each feeding apparatus to prevent aphid escape.
To obtain aphids for use in experiments, reproducing anholocyclic adults were placed on individual excised leaves of Chinese cabbage at densities of 5 adults per leaf and allowed to reproduce for 24 h. The stem of each excised leaf was held within a 0.5 mL Eppendorf tube containing water via a punctured hole in the Eppendorf lid, and placed individually within a microcage (L=4 cm, Ø=9.5 cm). Following 24 h, adults were removed and resultant first instar nymphs (<1 day old and synchronised in age to within 24 h) retained. Nymphs were allowed to develop on the Chinese cabbage for 5 days. On day 5, (3rd instar) nymphs were transferred onto the artificial diet containing a neuropeptide analogue at densities of 1 per feeding chamber and monitored daily until death. Aphids were transferred to fresh artificial diet (containing neuropeptide analogue) every 5 days. Life history traits recorded include age at first reproduction, number of nymphs produced per 24 h period, and lifespan. From these parameters, lifetime fecundity and daily fecundity were calculated. Control groups were set up involving aphids reared on the host plant, an artificial diet without a neuropeptide analogue, and an artificial diet containing the native CAPA neuropeptide.
Aphids were reared on artificial diet, alone or supplemented with peptide 2129, 2315, 2316 or 2320. A control group (no test peptide) was reared on a host plant. No other stress conditions were applied.
For peptides 2315, 2316 and 2320, mortality was assessed at 48, 72, 96, 120 and 144 hours. A group of 9 or 10 insects was used for each time point, and all experiments were performed at least 4 times.

## 2Abf-Suc-FGPRL-NH2 [compound 1895]
Macrosiphum rosae
  Reduction of LTime50 relative to control: 9.6 h
  Reduction of median survival relative to control: 10.5 h
  Documented effect on desiccation/starvation mortality: significantly increase mortality relative to the control; also recorded: significantly increased desiccation/starvation mortality; also recorded: Increases
  LTime50 (h), test: 18.7 | 9.1 h
  Median IQR survival (h), test: 17.5 ± 19.5 | 7.0 ± 12.5 h
Myzus persicae
  Reduction of LTime50 relative to control: 3.5 h
  Reduction of median survival relative to control: 4.0 h
  Documented effect on desiccation/starvation mortality: significantly increase mortality relative to the control; also recorded: significantly increased desiccation/starvation mortality; also recorded: Increases
  LTime50 (h), test: 15.9 | 12.4 h
  Median ± IQR survival (h), test: 17.8 ± 12.0 | 13.8 ± 11.8 h

## CC[C@H](C)[C@H](NC(=O)[C@H](CCCNC(=N)N)NC(=O)[C@@H]1CCCN1C(=O)[C@@H](NC(=O)[C@H](C)NC(=O)CCC(=O)Nc1ccc2c(c1)-c1cc(Br)ccc1C2)[C@@H](C)O)C(N)=O [compound 2129, 2Abf-Suc-ATPRI-NH2] ({X1-Suc}-ATPRI-NH2)
Aphids; after 24 h
  change in mortality relative to the control: 19.7%
  percentage survival: 73.8%
Aphids; after the first 24 h
  effect on aphid longevity: highly significant reduction in aphid longevity
Macrosiphum rosae
  Reduction of LTime50 relative to control: 11.6 h
  Reduction of median survival relative to control: 12.8 h
  Documented effect on desiccation/starvation mortality: significantly increase mortality relative to the control; also recorded: significantly increased desiccation/starvation mortality; also recorded: Increases
  LTime50 (h), test: 24.3 | 12.7 h
  Median IQR survival (h), test: 23.8 ± 20.5 | 11.0 ± 13.0 h
Myzus persicae
  Reduction of LTime50 relative to control: 7.1 h
  Reduction of median survival relative to control: 9.8 h
  Documented effect on desiccation/starvation mortality: significantly increase mortality relative to the control; also recorded: significantly increased desiccation/starvation mortality; also recorded: Increases
  LTime50 (h), test: 15.9 | 8.8 h
  Median ± IQR survival (h), test: 17.8 ± 12.0 | 8.0 ± 17.0 h
